Assays:
Assay in all cases: relative viability (nuclei count vs DMSO), 5 days (fraction); higher = more cells survive
[1] = compound: CN(C)CC1=CC(=CC=C1)N=C(C2=CC=CC=C2)C3=C(NC4=C3C=CC(=C4)C(=O)N(C)C)O + N=C(N)NC(=N)NCCc1ccccc1 [Phenformin] (partner 250 µM)
Procedure, shortened: (§1)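 Values are medians from duplicate plates. Each reflects relative viability, defined as the nuclei count of treated wells over that of vehicle wells. Lung cancer cell lines in 1536-well plates were pin-tool dosed one day after seeding with one drug alone or with a fixed anchor-drug dose plus five library-drug doses (not always all listed) in √10 steps, then fixed, stained and imaged at 4× after 5 days.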

[2] = compound: CN(C)CC1=CC(=CC=C1)N=C(C2=CC=CC=C2)C3=C(NC4=C3C=CC(=C4)C(=O)N(C)C)O + CS(=O)(=O)CCNCc1ccc(-c2ccc3ncnc(Nc4ccc(OCc5cccc(F)c5)c(Cl)c4)c3c2)o1 [Lapatinib] (partner 2 µM)
Procedure, shortened: as §1

[3] = compound: CN(C)CC1=CC(=CC=C1)N=C(C2=CC=CC=C2)C3=C(NC4=C3C=CC(=C4)C(=O)N(C)C)O + O=C(c1cc(Cc2n[nH]c(=O)c3ccccc23)ccc1F)N1CCN(C(=O)C2CC2)CC1 [Olaparib] (partner 8 µM)
Procedure, shortened: as §1

[4] = compound: CN(C)CC1=CC(=CC=C1)N=C(C2=CC=CC=C2)C3=C(NC4=C3C=CC(=C4)C(=O)N(C)C)O + CC(=O)Nc1cccc(-n2c(=O)n(C3CC3)c(=O)c3c(Nc4ccc(I)cc4F)n(C)c(=O)c(C)c32)c1 [Trametinib] (partner 0.02 µM)
Procedure, shortened: as §1

| Cell Line | relative viability ([1]; first compound 0.08 µM) | relative viability ([1]; first compound 0.253 µM) | relative viability ([1]; first compound 0.8 µM) | relative viability ([1]; first compound 2.53 µM) | relative viability ([1]; first compound 8 µM) | relative viability ([2]; first compound 0.08 µM) | relative viability ([2]; first compound 0.253 µM) | relative viability ([2]; first compound 0.8 µM) | relative viability ([2]; first compound 2.53 µM) | relative viability ([2]; first compound 8 µM) | relative viability ([3]; first compound 0.08 µM) | relative viability ([3]; first compound 0.253 µM) | relative viability ([3]; first compound 0.8 µM) | relative viability ([3]; first compound 2.53 µM) | relative viability ([3]; first compound 8 µM) | relative viability ([4]; first compound 0.08 µM) | relative viability ([4]; first compound 0.253 µM) | relative viability ([4]; first compound 2.53 µM) | relative viability ([4]; first compound 8 µM) | relative viability ([4]; first compound 0.8 µM) |
| --- | --- | --- | --- | --- | --- | --- | --- | --- | --- | --- | --- | --- | --- | --- | --- | --- | --- | --- | --- | --- |
| H3255 | 0.44 | 0.356 | 0.338 | 0.392 | 0.371 | 0.25 | 0.31 | 0.235 | 0.222 | 0.292 | 0.577 | 0.57 | 0.598 | 0.574 | 0.608 | 0.64 | 0.642 | 0.66 | 0.692 | – |
| LOU-NH91 | 0.697 | 0.652 | 0.548 | 0.714 | 0.699 | 0.721 | 0.836 | 0.75 | 0.743 | 0.697 | 0.931 | 0.867 | 0.817 | 0.906 | 0.89 | 0.76 | 0.807 | 0.818 | 0.788 | 0.759 |
| NCI-H322M | 0.685 | 0.801 | 0.669 | 0.631 | 0.551 | 0.612 | 0.599 | 0.54 | 0.564 | 0.575 | 0.68 | 0.753 | 0.679 | 0.645 | 0.661 | 0.49 | 0.497 | 0.487 | 0.468 | 0.477 |
| HCC-366 | 0.648 | 0.612 | 0.641 | 0.566 | 0.601 | 0.949 | 0.939 | 1.07 | 1.01 | 1.08 | 0.339 | 0.371 | 0.437 | 0.347 | 0.304 | 0.47 | 0.323 | 0.339 | 0.24 | 0.325 |
| SK-LU-1 | 0.41 | 0.573 | 0.597 | 0.473 | 0.39 | 0.814 | 0.878 | 0.831 | 0.747 | 0.836 | 0.483 | 0.47 | 0.516 | 0.431 | 0.385 | 0.448 | 0.446 | 0.445 | 0.385 | 0.459 |
| NCI-H1944 | 0.2 | 0.217 | 0.183 | 0.177 | 0.187 | 0.805 | 0.835 | 0.924 | 0.755 | 0.765 | 0.424 | 0.389 | 0.373 | 0.42 | 0.377 | 0.44 | 0.4 | 0.464 | 0.373 | 0.337 |
| HCC-15 | 0.48 | 0.462 | 0.503 | 0.419 | 0.431 | 0.891 | 0.821 | 0.947 | 0.776 | 0.924 | 0.681 | 0.737 | 0.798 | 0.561 | 0.785 | 0.362 | 0.392 | 0.389 | 0.434 | 0.356 |
